Assay results as given in ChEMBL document CHEMBL3616390, “Design and synthesis of N-[6-(Substituted Aminoethylideneamino)-2-Hydroxyindan-1-yl]arylamides as selective and potent muscarinic M₁ agonists” (Bioorg Med Chem Lett, 2015).
The source made the active and inactive calls. No cut-off for these calls is given here.

What was measured:
Rattus norvegicus [1] = assay: AUC (0 to 8 hrs) in rat at 10 mg/kg, po; assay type: ADME, organism-based; design: time < 8 hr, dose 10 mg/kg, route oral; settings: in vivo
[2] = biological target: T1, Muscarinic acetylcholine receptor M1 (Homo sapiens) (UniProt P11229); assay: Agonist activity at human muscarinic M1 receptor expressed in CHO cells after 30 mins by GTPgamma35S binding assay relative to oxotremorine-M; assay type: functional, cell-based
T1 sequence (whole entry): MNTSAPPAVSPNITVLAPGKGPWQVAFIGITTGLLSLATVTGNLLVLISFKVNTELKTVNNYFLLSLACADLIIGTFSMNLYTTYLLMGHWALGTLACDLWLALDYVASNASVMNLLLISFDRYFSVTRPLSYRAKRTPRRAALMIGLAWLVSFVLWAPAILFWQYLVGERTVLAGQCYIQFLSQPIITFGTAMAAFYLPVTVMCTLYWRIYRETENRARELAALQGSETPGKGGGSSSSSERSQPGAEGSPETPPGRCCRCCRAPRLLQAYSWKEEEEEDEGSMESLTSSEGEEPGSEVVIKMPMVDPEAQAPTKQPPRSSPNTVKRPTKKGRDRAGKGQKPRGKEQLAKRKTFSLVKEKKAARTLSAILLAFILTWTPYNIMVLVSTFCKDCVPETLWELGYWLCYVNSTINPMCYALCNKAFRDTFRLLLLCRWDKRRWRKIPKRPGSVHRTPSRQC

[3] = biological target: T2, Muscarinic acetylcholine receptor M3 (Homo sapiens, UniProt P20309); assay: Agonist activity at human muscarinic M3 receptor expressed in CHO cells after 30 mins by GTPgamma35S binding assay; assay type: functional, cell-based
Target sequence in this assay (P20309 whole entry): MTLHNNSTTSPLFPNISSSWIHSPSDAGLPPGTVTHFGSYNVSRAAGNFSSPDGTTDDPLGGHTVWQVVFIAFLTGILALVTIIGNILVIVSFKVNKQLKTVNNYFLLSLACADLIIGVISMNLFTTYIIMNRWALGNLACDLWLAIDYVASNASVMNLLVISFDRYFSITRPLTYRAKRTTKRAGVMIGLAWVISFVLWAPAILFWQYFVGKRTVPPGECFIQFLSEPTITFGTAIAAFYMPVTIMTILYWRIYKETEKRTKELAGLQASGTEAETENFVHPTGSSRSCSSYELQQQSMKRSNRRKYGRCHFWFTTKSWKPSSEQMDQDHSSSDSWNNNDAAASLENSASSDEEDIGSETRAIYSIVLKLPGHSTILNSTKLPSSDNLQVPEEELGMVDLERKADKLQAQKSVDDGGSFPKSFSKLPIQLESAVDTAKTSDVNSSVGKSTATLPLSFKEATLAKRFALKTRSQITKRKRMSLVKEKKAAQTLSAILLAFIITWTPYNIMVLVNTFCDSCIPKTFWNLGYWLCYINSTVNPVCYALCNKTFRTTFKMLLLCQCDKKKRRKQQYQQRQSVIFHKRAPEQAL

[4] = biological target: T3, Muscarinic acetylcholine receptor M1 (Homo sapiens, UniProt P11229); assay: Agonist activity at human muscarinic M1 receptor expressed in CHO cells after 30 mins by GTPgamma35S binding assay; assay type: functional, cell-based
T3 sequence (P11229 whole entry): T1 sequence (whole entry)

[5] = Drug uptake in rat whole brain at 10 mg/kg, po measured at 3 hrs; assay type: ADME, organism-based; settings: read-out: Drug uptake
[6] = biological target: T4, Muscarinic acetylcholine receptor M4 (Homo sapiens) (UniProt P08173); assay: Agonist activity at human muscarinic M4 receptor expressed in CHO cells after 30 mins by GTPgamma35S binding assay relative to oxotremorine-M; assay type: functional, cell-based
T4 sequence (whole entry): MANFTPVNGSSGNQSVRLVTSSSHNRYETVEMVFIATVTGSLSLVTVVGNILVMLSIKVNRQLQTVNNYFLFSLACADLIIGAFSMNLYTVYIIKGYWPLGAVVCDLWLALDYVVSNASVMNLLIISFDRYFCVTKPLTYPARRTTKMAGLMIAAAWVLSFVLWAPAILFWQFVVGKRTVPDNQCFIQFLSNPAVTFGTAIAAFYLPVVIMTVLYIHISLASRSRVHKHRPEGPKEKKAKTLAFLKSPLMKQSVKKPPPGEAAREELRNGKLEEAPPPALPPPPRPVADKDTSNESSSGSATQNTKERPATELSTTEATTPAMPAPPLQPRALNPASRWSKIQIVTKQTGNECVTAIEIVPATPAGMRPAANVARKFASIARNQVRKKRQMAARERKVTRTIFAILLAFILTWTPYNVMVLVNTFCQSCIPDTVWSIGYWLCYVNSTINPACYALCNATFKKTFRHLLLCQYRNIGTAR

[7] = biological target: T5, Muscarinic acetylcholine receptor M5 (Homo sapiens, UniProt P08912); assay: Agonist activity at human muscarinic M5 receptor expressed in CHO cells after 30 mins by GTPgamma35S binding assay; assay type: functional, cell-based
T5 sequence (P08912 whole entry): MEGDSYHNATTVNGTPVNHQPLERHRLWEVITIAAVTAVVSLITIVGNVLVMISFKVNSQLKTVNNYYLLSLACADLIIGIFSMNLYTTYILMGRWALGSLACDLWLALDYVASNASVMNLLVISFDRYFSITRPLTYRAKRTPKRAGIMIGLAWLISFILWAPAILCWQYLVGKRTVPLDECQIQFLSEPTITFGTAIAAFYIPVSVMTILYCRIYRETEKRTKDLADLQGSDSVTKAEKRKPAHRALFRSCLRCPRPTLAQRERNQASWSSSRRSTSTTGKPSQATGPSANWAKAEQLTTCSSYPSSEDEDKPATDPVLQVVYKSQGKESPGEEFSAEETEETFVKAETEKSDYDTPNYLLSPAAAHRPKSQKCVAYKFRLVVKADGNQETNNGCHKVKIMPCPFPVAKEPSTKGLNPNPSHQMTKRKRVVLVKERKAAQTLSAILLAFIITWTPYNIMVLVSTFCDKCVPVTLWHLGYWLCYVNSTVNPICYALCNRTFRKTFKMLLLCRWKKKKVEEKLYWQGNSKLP

[8] = biological target: T6, Muscarinic acetylcholine receptor M2 (Homo sapiens) (UniProt P08172); assay: Agonist activity at human muscarinic M2 receptor expressed in CHO cells after 30 mins by GTPgamma35S binding assay relative to oxotremorine-M; assay type: functional, cell-based
T6 sequence (whole entry): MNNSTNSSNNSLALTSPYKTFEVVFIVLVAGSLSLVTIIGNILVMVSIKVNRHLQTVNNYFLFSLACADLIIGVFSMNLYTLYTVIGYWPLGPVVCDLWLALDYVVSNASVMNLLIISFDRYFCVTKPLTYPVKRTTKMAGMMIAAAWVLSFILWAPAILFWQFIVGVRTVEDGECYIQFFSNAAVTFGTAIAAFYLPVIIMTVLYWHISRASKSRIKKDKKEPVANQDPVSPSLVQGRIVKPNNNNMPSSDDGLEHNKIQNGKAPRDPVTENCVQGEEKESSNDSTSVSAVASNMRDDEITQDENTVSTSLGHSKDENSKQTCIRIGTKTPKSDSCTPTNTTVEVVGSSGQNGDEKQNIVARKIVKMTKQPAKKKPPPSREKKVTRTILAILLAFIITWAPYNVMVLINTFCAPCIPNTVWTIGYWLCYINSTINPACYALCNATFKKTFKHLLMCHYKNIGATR

[9] = biological target: T4, Muscarinic acetylcholine receptor M4 (Homo sapiens); assay: Agonist activity at human muscarinic M4 receptor expressed in CHO cells after 30 mins by GTPgamma35S binding assay relative to acetylcholine; assay type: functional, cell-based
[10] = biological target: T6, Muscarinic acetylcholine receptor M2 (Homo sapiens); assay: Agonist activity at human muscarinic M2 receptor expressed in CHO cells after 30 mins by GTPgamma35S binding assay relative to acetylcholine; assay type: functional, cell-based
[11] = biological target: T7, Muscarinic acetylcholine receptor M5 (Homo sapiens) (UniProt P08912); assay: Agonist activity at human muscarinic M5 receptor expressed in CHO cells after 30 mins by GTPgamma35S binding assay relative to acetylcholine; assay type: functional, cell-based
T7 sequence (whole entry): T5 sequence (P08912 whole entry)

[12] = biological target: T2, Muscarinic acetylcholine receptor M3; assay: Agonist activity at human muscarinic M3 receptor expressed in CHO cells after 30 mins by GTPgamma35S binding assay relative to acetylcholine; assay type: functional, cell-based
Target sequence in this assay (P20309 whole entry, looked up): as the sequence (P20309 whole entry) above

[13] = biological target: T8, Muscarinic acetylcholine receptor M4 (Homo sapiens, UniProt P08173); assay: Agonist activity at human muscarinic M4 receptor expressed in CHO cells after 30 mins by GTPgamma35S binding assay; assay type: functional, cell-based
T8 sequence (P08173 whole entry): T4 sequence (whole entry)

[14] = biological target: T9, Muscarinic acetylcholine receptor M2 (Homo sapiens, UniProt P08172); assay: Agonist activity at human muscarinic M2 receptor expressed in CHO cells after 30 mins by GTPgamma35S binding assay; assay type: functional, cell-based
T9 sequence (P08172 whole entry): T6 sequence (whole entry)

[15] = Oral bioavailability in rat; assay type: ADME, organism-based; settings: in vivo
[16] = Dissociation constant, pKa of the compound; assay type: physicochemical
Rattus norvegicus [17] = assay: Cognitive enhancement activity in po dosed rat by 8-arm radial maze test; assay type: functional; settings: read-out: MED
[18] = Partition coefficient, log D of the compound; assay type: physicochemical; settings: octanol/water
Rattus norvegicus [19] = assay: AUC (0 to 6 hrs) in rat at 10 mg/kg, po; assay type: ADME, organism-based; design: time < 6 hr, dose 10 mg/kg, route oral; settings: in vivo
[20] = Oral bioavailability in monkey; assay type: ADME, organism-based, Macaca mulatta; settings: rhesus monkey, in vivo
[21] = biological target: T6, Muscarinic acetylcholine receptor M2 (Homo sapiens); assay: Agonist activity at human muscarinic M2 receptor expressed in CHO cells at 280 nM after 30 mins by GTPgamma35S binding assay relative to control; assay type: functional, cell-based
[22] = Drug degradation in rat plasma assessed as formamidine hydrolysis after 4 hrs; assay type: ADME, cell-free; settings: read-out: Drug degradation
Rattus norvegicus [23] = assay: Cognitive enhancement activity in rat at 30 mg/kg, po by spatial learning test; assay type: functional, organism-based
Plasma = assay: Metabolic stability in rat plasma; assay type: ADME, cell-free

Compound	AUC (Rattus norvegicus [1]) [ng·h/g]	Efficacy [2] [%]	EC50 ([3]; cho)	EC50 [4] [nM]	concentration at 3 h [5] [ng/g]	Efficacy [6] [%]	EC50 ([7]; cho)	Efficacy [8] [%]	Efficacy [9] [%]	Efficacy [10] [%]	Efficacy [11] [%]	Efficacy [12] [%]	EC50 [13] [nM]	EC50 [14] [nM]	pKa [16]	also measured
C/C(=N\c1ccc2c(c1)[C@@H](NC(=O)c1ccc(Br)cc1)[C@H](O)C2)N(C)c1ccc(F)cc1	4681	31.5	Not Active	118	891	< 20	Not Active	< 20								
C#CCO[C@H]1CN2CCC1CC2 [TALSACLIDINE]				820					22.2	94.4	23.7	26.1	844	849		EC50 ([3]; read-out: EC50): 2700 nM; EC50 ([7]; read-out: EC50): 422 nM
C/C(=N\c1ccc2c(c1)[C@@H](NC(=O)c1ccc(-c3ccccc3)cc1)[C@H](O)C2)N(C)Cc1ccc(F)cc1		110	Not Active	22.8	141	29.7	Not Active	34.6					1060	693	8.3	bioavailability [15]: 32%; minimal effective dose (Rattus norvegicus [17]): 1 mg/kg; logD [18]: 2.3; AUC (Rattus norvegicus [19]): 533 ng·h/g; bioavailability [20]: 46%
C/C(=N\c1ccc2c(c1)[C@@H](NC(=O)c1ccc(Br)cc1)[C@H](O)C2)NCc1ccc(F)cc1	634	89.9	Not Active	20.9	64	33.5	Not Active	31.8					115	71.8	8.49	logD [18]: 2.01
CCn1nnc(C2=CCCN(C)C2)n1									< 20	49.2	< 20	< 20				
CC(=O)OCC[N+](C)(C)C									93.4		110	117				
O=C(N[C@@H]1c2cc(/N=C/N3CCCC3)ccc2C[C@H]1O)c1ccc(Br)cc1																Emax [21]: 80%; metabolised at 4 h [22]: 50%
CCCCCCOc1nsnc1C1=CCCN(C)C1									48.7	83.5	25.9	< 20				
C/C(=N\c1ccc2c(c1)[C@@H](NC(=O)c1ccc(Br)cc1)[C@H](O)C2)Nc1ccc(F)cc1	1369	79.4	Not Active	51	147	23.1	Not Active	25.2					1110	749	8.2	
C/C(=N\c1ccc2c(c1)[C@@H](NC(=O)c1ccc(Br)cc1)[C@H](O)C2)N1CCCCC1																metabolised at 4 h [22]: 5%
CN1CCCC/C1=N\c1ccc2c(c1)[C@@H](NC(=O)c1ccc(Br)cc1)[C@H](O)C2	506			80	< 40				34	28			113	24	9.9	bioavailability [15]: 68%; Activity (Rattus norvegicus [23]): Active; logD [18]: 1.04; Stability (Plasma): Stable
CO/N=C(\C#N)[C@H]1CN2CCC1CC2 [SABCOMELINE]				63.6					21.3	87.7	38.9	28.3	214	62.1		EC50 ([3]; read-out: EC50): 117 nM; EC50 ([7]; read-out: EC50): 123 nM
